Entries after “also recorded” stand apart in the source; their conditions may differ.
Experiments:
[1] = test system: osteoblasts; conditions: cited from earlier work
[2] = test system: MG-63 human osteoblasts; conditions: via activation of the estrogen receptor; cited from earlier work
[3] = Collagen sponge implants, subcutaneous or intramuscular bone induction in rats; type: in vivo, rat
Method: Collagen sponge was either blended with naringin solution or covalently crosslinked naringin to collagen sponges. Different doses of BMP-2 were added to the matrices before implantation. Samples were placed intramuscular in thigh muscle. Ten Fisher 344 rats with 180 g in weight were used in this study. Implants were be retrieved 28 days postoperatively. Explants were dissected free of muscle flaps and cut into halves. One half of each explant was used for alkaline phosphatase assay.
Based on these surprising discoveries, the inventors concluded that specific growth factors are needed in addition to naringin for bone to form (FIG. 3).
It will be recognized by one skilled in the art that osteoinductive enhancers are particularly useful in situations where fracture healing is compromised, such as in older people where biosynthetic abilities may be declining, or in situations where not sufficient bone is available for repair. It will also be understood by one of ordinary skill in the art that the addition of growth factors (natural or synthetic) to the naringin containing preparation is essential for osteoinduction.

[4] = test system: Pre-myoblast cell line C2C12; assay: BMP-2 induced ALP activity in C2C12 cell culture; type: cell-based
Method: C2C12 was plated in 96-well culture plate with density of 12.5K/well in 10% FBS/DMEM for 5 hours attachment. […] Cells were incubated at 37° C. for another 48 hours. Cell membrane associated ALP activity was tested by standard ALP assay.
C2C12 was plated in 96-well culture plate with density of 12.5K/well in 10% FBS/DMEM for 5 hours attachment. Medium was changed into 1% testing medium. Forty nano-gram of rhBMP-2 in 10 μl was added in every well and 1-1600 nM of naringin was added 10 minutes later.

[5] = test system: Rat bone marrow derived stem cells; assay: MTT cell proliferation assay; type: cell-based; conditions: 48 h, FIG. 6
Excerpt: MTT was used for cell proliferation assay. MTT [3-(4,5-dimethylthiazol-2-yl)-2,5-diphenyltetrazolium bromide] assay is based on the ability of a mitochondrial dehydrogenase enzyme from viable cells to cleave the tetrazolium rings of the pale yellow MTT and form a dark blue formazan crystals which is largely impermeable to cell membranes, thus resulting in its accumulation within healthy cells. Rat bone marrow derived stem cells were selected by pro-plating methods. Cells used in this study were from passages 3-4. 1×10^7 viable cells/mL in culture media containing 10% FCS were dispensed 100 μL per well in 96 well flat bottomed tissue culture plates. Cells were allow to grow with and without naringin and incubated plates in a humidified CO2 incubator at 37° C. for 48 h. 10 μL of MTT solution were added to all wells of 48 h cultured stem cells and incubate for 4 h at 37° C. After washing cells 3 times with PBS, dark blue dye in cells were dissolved with DMSO. After a few minutes at room temperature read plates using a plate reader in dual wavelength measuring system, at 540 nm and a reference wavelength of 630 nm.
Dose dependent of naringin on bone marrow stem cell proliferation was studied. Cell number was assayed by MTT method. […] (see FIG. 6).

[6] = DBM with naringin in abdominal muscle pouches of nude rats, ectopic bone formation; type: in vivo; conditions: optimized dose of naringin
Method: Osteoinductive (OI) activity of human DBM obtained from Tissue Bank with particle size of 210-750 micrometers was tested in vitro with cell culture methods (Han, 2003). DBM were grouped according their OI score.
Two doses of naringin were used to treat DBM particles before implantation. In 50 mg of DBM, 50 micro liter of 100 micromolar or […] of naringin/PBS solution was added into DBM before implantation.
Muscle pouches were created in abdominal muscles bilaterally in nude rats (weighing 120-150 g each) at 6 sites by sharp and blunt dissection. Subsequently, fifty milligrams of three groups of DBM, two doses of naringin/PBS and with PBS alone, were packed into pouches and closed with a single absorbable suture. Implants were retrieved 28 days postoperatively. The recti abdomini muscles were excised as single muscle flaps and placed in cold PBS moisturized paper towels for radiography. Explants were dissected free of muscle flaps and cut into halves. One half of each explant were used for alkaline phosphatase assay and the other half were fixed in 10% neutral buffered formalin solution for 24 hours and decalcified with a decalcifying solution (Stephens Scientific, Riverdale, N.J.) for 48 hours. The decalcified explants were paraffin-embedded and sectioned with a […] microtome. […]

[7] = test system: estrogen receptor; assay: Naringin enhancement of BMP-2 effect with estrogen receptor antagonist ICI182,780 in C2C12; type: cell-based; conditions: FIG. 5
Method: Intracellular distribution of the estrogen receptor in skeletal myoblasts (C2C12) was determined by immuno-fluorescent staining (Milanesi, L., et al., J Cell Biochem, 2008). Naringin bind to estrogen receptor. Inhibition of estrogen receptor abrogate naringin effect. […] However, the mechanism by which naringin exerts its effects is still unclear. From our prelimianry study, there is evidence that naringin acts via estrogen-receptor (ER)-mediated signaling. Cells were cultured with naringin, in combination with 7α,17β-[9[(4,4,5,5,5-pentafluoropentyl)sulfinyl]nonyl] estra-1,3,5(10)-triene-3,17-diol (ICI182,780), a non-specific ERα and ERβ antagonist.

O=c1c(-c2ccc(O)cc2)coc2cc(O)ccc12 [daidzein]
increase of viability of osteoblasts ([1]; daidzein 2-50 microM, P<0.05): about 1.4 fold
increase of alkaline phosphatase activity of osteoblasts ([1]; daidzein 2-100 microM, P<0.05): about 1.4 fold
increase of osteocalcin synthesis of osteoblasts ([1]; daidzein 2-100 microM, P<0.05): ~2.0 fold
BMP2 mRNA increase ([1]; osteoblasts): 5.0 fold
BMP2 protein increase ([1]; osteoblasts): 7.0 fold

O=c1c(O)c(-c2ccc(O)cc2)oc2cc(O)cc(O)c12 [kaempferol]
alkaline phosphatase activity in MG-63 human osteoblasts [2]: induced an increase in alkaline phosphatase activity

C[C@@H]1O[C@@H](O[C@H]2[C@H](Oc3cc(O)c4c(c3)O[C@H](c3ccc(O)cc3)CC4=O)O[C@H](CO)[C@@H](O)[C@@H]2O)[C@H](O)[C@H](O)[C@H]1O [naringin]
new bone induction ([3]; collagen sponges with naringin plus growth factors (BMP2 and/or BMP7), subcutaneous or intramuscular model): did induce bone
new bone induction ([3]; naringin alone with collagen carrier, no growth factors, rats): do not induce new bone; also recorded: not sufficient to induce bone; also recorded: no bone was formed; also recorded: no effect
naringin concentration with maximal enhancing ALP effect ([4]; 40 ng rhBMP-2 per well, 1-1600 nM naringin added 10 minutes later, FIG. 4): 800 nM
increase of BMP-2 activity by naringin ([4]; BMP-2 plus naringin versus BMP-2 alone, FIG. 3): four-fold
BMP-2 activity in the ALP assay when naringin is added ([4]; BMP-2 plus naringin, FIG. 3): 0.4
induction of differentiation in osteoprogenitor cells by alkaline phosphatase activity ([4]; C2C12, preliminary results): significant induction of differentiation
effect of naringin on BMP-2 induced ALP activity ([4]; naringin added to BMP-2, C2C12, FIG. 3): increases the upregulation of alkaline phosphatase activity by BMP-2; also recorded: dose dependently increase BMP-2 induced ALP activity
effect of naringin by itself on ALP activity / osteoinductivity ([4]; naringin alone, no BMP-2, C2C12, 48 hours): not enough for osteogenic induction; also recorded: no effect on ALP activity; also recorded: no osteoinductivity at all
bone marrow stem cell proliferation (MTT) [5]: inhibits rat bone marrow cell proliferation
DBM activity in regard of ectopic bone formation potential [6]: significantly increased

O=c1c(O)c(-c2ccc(O)c(O)c2)oc2cc(O)cc(O)c12 [quercetin]
alkaline phosphatase activity in MG-63 human osteoblasts [2]: induced an increase in alkaline phosphatase activity

C[C@]12CC[C@@H]3c4ccc(O)cc4C[C@@H](CCCCCCCCC[S+]([O-])CCCC(F)(F)C(F)(F)F)[C@H]3[C@@H]1CC[C@@H]2O (stereo partly drawn) [ICI, 7α,17β-[9[(4,4,5,5,5-pentafluoropentyl)sulfinyl]nonyl] estra-1,3,5(10)-triene-3,17-diol]
effect of estrogen receptor antagonist on naringin enhancing BMP-2 effect [7]: partially block naringin enhancing BMP-2 effect

— patent US20080241211A1, “DEVICE WHICH ENHANCES THE BIOLOGICAL ACTIVITY OF LOCALLY APPLIED GROWTH FACTORS WITH PARTICULAR EMPHASIS ON THOSE USED FOR BONE REPAIR” (University of Southern California, priority 2007, published 2008)
